Test systems include K562; SK-MEL-5; HCC 2998; DMS-273; RPMI-8226; SF-295; LOX IMVI; SK-OV-3; A549; IGROV-1; HCT-15; CAKI-1; NCI-H522; HT-29; SF-268; NCI-H226; XF498; SW-620; CCRF-CEM; OVCAR-3.
Assay in all cases: inhibition of tumour cell growth, NCI panel, 48 h

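Each compound was tested at five concentrations against cells in 96-well plates for 48 hours. GI50 = concentration required for 50% inhibition of growth.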 Active and inactive are the calls of the source. No stated cut-off is given here; in the data, active = GI50 up to about 1.1 µM and inactive = higher.

The results in this text go back to ChEMBL document CHEMBL1201862, “PubChem BioAssay data set” (2004).

`O=C(c1ccccc1)c1ccc2c(c1)N=C(c1ccc(Cl)c(Cl)c1)CC(c1ccc3ccccc3c1)N2` (stereo not drawn): the GI50 in the test with K562 was > 100 µM (inactive); in the test on SK-MEL-5, > 100 µM (inactive); with HCC 2998 it was > 100 µM (inactive); in the test with DMS-273, > 100 µM (inactive); with RPMI-8226, 99.8 µM (inactive); in the test on SF-295 it was > 100 µM (inactive). For the same compound, the GI50 with LOX IMVI is > 100 µM (inactive); in the test on SK-OV-3 it was > 100 µM (inactive); with A549 it was > 100 µM (inactive); in the test on IGROV-1, > 100 µM (inactive); in the test on HCT-15 it was greater than 100 µM; with CAKI-1, > 100 µM (inactive). Besides, the GI50 with NCI-H522, in the test on HT-29, with SF-268, in the test with NCI-H226, in the test on XF498 and in the test with SW-620 was > 100 µM (inactive) each time. For the same compound, the GI50 with CCRF-CEM is 67.6 µM (inactive).
For `CCN1CC2(CO)CCC(OC)C34C5CC6C(OC)CC(O)(C5C6OC)C(O)(C(OC)C23)C14` (stereo not drawn), the GI50 was > 375 µM (inactive) in the test on K562; > 211 µM (inactive) in the test with SK-MEL-5; > 375 µM (inactive) in the test with HCC 2998; > 375 µM (inactive) in the test on DMS-273; > 375 µM (inactive) in the test with RPMI-8226; > 375 µM (inactive) in the test on SF-295. The GI50 in the test on LOX IMVI was > 375 µM (inactive); in the test with SK-OV-3 it was > 375 µM (inactive); with A549 it was > 375 µM (inactive); in the test on IGROV-1, > 375 µM (inactive); with HCT-15, greater than 375 µM; in the test on CAKI-1, > 375 µM (inactive). Moreover, the GI50 with NCI-H522 is > 375 µM (inactive); with HT-29, > 375 µM (inactive); in the test with SF-268, > 375 µM (inactive); in the test with OVCAR-3 it was > 174 µM (inactive); with NCI-H226, > 375 µM (inactive); with XF498, > 360 µM (inactive). For the same compound, the GI50 with SW-620 and with CCRF-CEM was > 375 µM (inactive) each time.
For `O=C(Nc1cccc2c1[nH]c1c(-c3ccccc3)nccc12)c1ccccc1[N+](=O)[O-]`, the GI50 was 21.9 µM (inactive) in the test on K562; 18.6 µM (inactive) in the test with HCC 2998; 4.88 µM (inactive) in the test with DMS-273; 30.7 µM (inactive) in the test on RPMI-8226; 7.13 µM (inactive) in the test on SF-295; 24.5 µM (inactive) in the test on LOX IMVI. Further, the GI50 with A549 is 24.4 µM (inactive); in the test with IGROV-1 it was 54.5 µM (inactive); in the test on HCT-15, 7.36 µM; with CAKI-1, 18.8 µM (inactive); in the test on HT-29, 8.71 µM (inactive); in the test on SF-268 it was 27.9 µM (inactive). Also, the GI50 is 3.74 µM (inactive) with NCI-H226, 41.2 µM (inactive) in the test with SW-620 and 21.9 µM (inactive) in the test on CCRF-CEM.
Turning to `C=CCCC1(C)CCCNC1=S` (stereo not drawn), the GI50 in the test with K562, in the test on SK-MEL-5, in the test with HCC 2998, with DMS-273, in the test with RPMI-8226 and with SF-295 was > 100 µM (inactive) each time. The GI50 is > 100 µM (inactive) in the test with LOX IMVI; > 100 µM (inactive) in the test on SK-OV-3; > 100 µM (inactive) with A549; > 100 µM (inactive) in the test with IGROV-1; greater than 100 µM with HCT-15; > 100 µM (inactive) with HT-29. In addition, the GI50 with OVCAR-3 was > 100 µM (inactive); in the test on NCI-H226, > 100 µM (inactive); with XF498, > 100 µM (inactive); in the test with SW-620 it was > 100 µM (inactive); in the test with CCRF-CEM, 17.7 µM (inactive).
`O=CNc1cccc2c3c([nH]c12)CCCCCC3`: the GI50 is 67.9 µM (inactive) with K562; 97.5 µM (inactive) with SK-MEL-5; > 100 µM (inactive) in the test on HCC 2998; > 100 µM (inactive) with DMS-273; > 62.4 µM (inactive) in the test with SF-295; > 100 µM (inactive) with LOX IMVI. The GI50 with SK-OV-3 was > 100 µM (inactive); with A549, > 100 µM (inactive); in the test with IGROV-1, 83.2 µM (inactive); with HCT-15 it was greater than 100 µM; with CAKI-1, 33 µM (inactive); in the test on NCI-H522, > 67.1 µM (inactive). Moreover, the GI50 in the test with HT-29 was > 69.3 µM (inactive); with SF-268 it was > 100 µM (inactive); in the test on OVCAR-3 it was > 100 µM (inactive); with NCI-H226 it was > 100 µM (inactive); in the test on XF498, > 77.1 µM (inactive); in the test on SW-620 it was > 100 µM (inactive). Moreover, in the test on CCRF-CEM, the GI50 was > 77.8 µM (inactive).
Regarding `COc1ccc(C2C(C#N)=C(O)NC(O)=C2C#N)cc1OC`, the GI50 with SK-MEL-5, with HCC 2998, in the test on DMS-273, in the test on RPMI-8226, in the test with SF-295 and in the test on SK-OV-3 was > 100 µM (inactive) in each case. In addition, the GI50 in the test on A549 was > 100 µM (inactive); in the test with IGROV-1, > 100 µM (inactive); in the test on HCT-15, greater than 100 µM; with CAKI-1 it was > 100 µM (inactive); with NCI-H522 it was > 100 µM (inactive); in the test on HT-29, > 100 µM (inactive). In addition, the GI50 in the test on SF-268, in the test on OVCAR-3, with XF498 and with SW-620 was > 100 µM (inactive) throughout.
With `CCC12CCC[C@@]13C=C[C@H](O3)C(C)(C)C2=O` (stereo partly drawn), the GI50 in the test with K562, in the test on SK-MEL-5, in the test with HCC 2998, with DMS-273, in the test on RPMI-8226 and with SF-295 was > 100 µM (inactive) each time. In addition, the GI50 in the test with LOX IMVI is > 100 µM (inactive); with SK-OV-3, > 100 µM (inactive); in the test with A549 it was > 100 µM (inactive); with IGROV-1 it was > 100 µM (inactive); in the test with HCT-15 it was greater than 100 µM; in the test on CAKI-1, > 100 µM (inactive). Moreover, the GI50 in the test with NCI-H522, with HT-29, in the test on SF-268, in the test with OVCAR-3, in the test on NCI-H226 and with SW-620 was > 100 µM (inactive) each time. Also, the GI50 in the test on CCRF-CEM is > 100 µM (inactive).
As to `CN(C)CCNCc1c2ccccc2c(CNCCN(C)C)c2ccccc12`, the GI50 is 17.8 µM (inactive) in the test on K562; 12.8 µM (inactive) in the test with SK-MEL-5; 10.7 µM (inactive) in the test on HCC 2998; 34 µM (inactive) in the test with DMS-273; 31 µM (inactive) with RPMI-8226; 49.2 µM (inactive) with SF-295. Further, the GI50 in the test on LOX IMVI was 18.1 µM (inactive); in the test with SK-OV-3 it was 16.9 µM (inactive); in the test on A549, 23.1 µM (inactive); in the test with IGROV-1, 26.6 µM (inactive); in the test on HCT-15 it was 41.1 µM; in the test on NCI-H522 it was 31 µM (inactive). The GI50 with HT-29 was 14 µM (inactive); with SF-268, 27 µM (inactive); in the test with OVCAR-3 it was 37.5 µM (inactive); in the test with NCI-H226, 19.5 µM (inactive); with XF498, 58.2 µM (inactive); in the test on SW-620 it was 18 µM (inactive). Moreover, the GI50 in the test on CCRF-CEM is 20.8 µM (inactive).
In the case of `Nc1nc(=O)n(C2OC(CO)C(O)C2O)cc1F` (stereo not drawn), the GI50 is 0.506 µM (active) with K562; > 100 µM (inactive) with HCC 2998; 4.36 µM (inactive) in the test with DMS-273; > 100 µM (inactive) with RPMI-8226; 21.8 µM (inactive) in the test on SF-295; 0.297 µM (active) in the test on LOX IMVI. Moreover, the GI50 in the test with SK-OV-3 is > 100 µM (inactive); with A549 it was 0.255 µM (active); in the test with IGROV-1 it was > 100 µM (inactive); with HCT-15 it was 3.13 µM; with CAKI-1 it was 1.65 µM (inactive); with NCI-H522, 0.785 µM (active). Further, the GI50 in the test with HT-29 is 5.65 µM (inactive); with SF-268, 2.75 µM (inactive); in the test on OVCAR-3, > 100 µM (inactive); in the test on NCI-H226 it was > 100 µM (inactive); in the test with XF498 it was > 100 µM (inactive); with SW-620 it was 22.2 µM (inactive). Moreover, in the test on CCRF-CEM, the GI50 is < 0.0136 µM (active).
On to `O[C@H]1[C@H](O)[C@@H](O)CN2CC[C@H](O)[C@H]12` [CASTANOSPERMINE], for which the GI50 is > 100 µM (inactive) with K562; > 100 µM (inactive) with SK-MEL-5; > 95.5 µM (inactive) with HCC 2998; > 100 µM (inactive) with DMS-273; > 100 µM (inactive) in the test on RPMI-8226; > 100 µM (inactive) in the test with SF-295. Besides, the GI50 is > 100 µM (inactive) with LOX IMVI; > 100 µM (inactive) in the test on SK-OV-3; > 100 µM (inactive) with A549; > 100 µM (inactive) in the test with IGROV-1; greater than 100 µM in the test with HCT-15; > 100 µM (inactive) in the test on CAKI-1. The GI50 in the test with NCI-H522, in the test with HT-29, in the test on SF-268, in the test on OVCAR-3, in the test on NCI-H226 and in the test with XF498 was > 100 µM (inactive) each time. The GI50 in the test on SW-620 and in the test on CCRF-CEM was > 100 µM (inactive) each time.
